Assay results: DBAASP
Converted amounts (≈) assume the structure as drawn.

Assays:
Test in all cases: ≥ marks a high value that may be exact or a test limit, other limits are often not marked, values filed in µg/mL are converted to µM
[1] = system: Staphylococcus aureus ATCC 25923
[2] = system: Enterococcus faecalis ATCC 29212
[3] = system: Acinetobacter baumannii ATCC 19606
[4] = system: Escherichia coli ATCC 25922
[5] = system: Staphylococcus epidermidis ATCC 12228
[6] = system: Pseudomonas aeruginosa ATCC 27853
[7] = system: Klebsiella pneumoniae ATCC 700603
[8] = system: Bacillus subtilis ATCC 23857
Bacillus subtilis = system: Bacillus subtilis
[9] = system: Candida albicans ATCC 2002
[10] = system: Staphylococcus aureus ATCC 2592

Row | MIC [1] [µM] | MIC [2] [µM] | MIC [3] [µM] | MIC [4] [µM] | MIC [5] [µM] | MIC [6] [µM] | MIC [7] [µM] | MIC [8] [µM] | MIC (Bacillus subtilis) [µM] | MIC [9] [µM] | MIC [10] [µM] | SMILES
1 | 16 (≈ 23 µg/mL) | 64 (≈ 92.1 µg/mL) | 128 (≈ 184 µg/mL) | 16 (≈ 23 µg/mL) | 128 (≈ 184 µg/mL) | 8 (≈ 11.5 µg/mL) | 32 (≈ 46 µg/mL) | 16 (≈ 23 µg/mL) | – | – | – | CC[C@H](C)[C@H](NC(=O)[C@H](CCCN=C(N)N)NC(=O)[C@H](CCCCN)NC(=O)[C@H](Cc1ccccc1)NC(=O)[C@H](Cc1c[nH]c2ccccc12)NC(=O)[C@@H](N)CCCCN)C(=O)N[C@@H](CCCCN)C(=O)N[C@H](C(=O)N[C@@H](Cc1ccccc1)C(=O)N[C@@H](Cc1c[nH]c2ccccc12)C(N)=O)[C@@H](C)O [KWFKRIKTFW]
2 | 8 (≈ 10.8 µg/mL) | 32 (≈ 43.1 µg/mL) | 32 (≈ 43.1 µg/mL) | 32 (≈ 43.1 µg/mL) | 32 (≈ 43.1 µg/mL) | 4 (≈ 5.38 µg/mL) | 32 (≈ 43.1 µg/mL) | 8 (≈ 10.8 µg/mL) | – | – | – | CC[C@H](C)[C@H](NC(=O)[C@H](CCCN=C(N)N)NC(=O)[C@H](CCCN=C(N)N)NC(=O)[C@H](Cc1ccccc1)NC(=O)[C@H](Cc1ccccc1)NC(=O)CN)C(=O)N[C@@H](CCCN=C(N)N)C(=O)N[C@H](C(=O)N[C@@H](Cc1ccccc1)C(=O)N[C@@H](Cc1ccccc1)C(N)=O)[C@@H](C)O [GFFRRIRTFF]
3 | – | – | – | > 38.4 | – | – | – | – | ≥ 38.4 | ≥ 38.4 | ≥ 38.4 | CC(C)[C@H](N)C(=O)N[C@@H](CCCCN)C(=O)N[C@@H](Cc1c[nH]c2ccccc12)C(=O)N[C@@H](CCCN=C(N)N)C(=O)N[C@@H](Cc1c[nH]c2ccccc12)C(=O)N[C@@H](CCCCN)C(=O)N[C@@H](Cc1c[nH]c2ccccc12)C(=O)N[C@@H](CCCCN)C(=O)N[C@@H](Cc1c[nH]c2ccccc12)C(=O)N[C@@H](CCCN=C(N)N)C(=O)N[C@@H](Cc1c[nH]c2ccccc12)C(=O)N[C@@H](CCCCN)C(=O)N[C@@H](Cc1c[nH]c2ccccc12)C(=O)N[C@@H](CCCCN)C(=O)N[C@@H](Cc1c[nH]c2ccccc12)C(=O)N[C@@H](CCCCN)C(=O)N[C@H](C(N)=O)C(C)C [VKWRWKWKWRWKWKWKV]
4 | – | – | – | > 41.4 | – | – | – | – | ≥ 41.4 | ≥ 41.4 | ≥ 41.4 | CC(C)[C@H](N)C(=O)N[C@@H](CCCCN)C(=O)N[C@@H](Cc1c[nH]c2ccccc12)C(=O)N[C@@H](CCCN=C(N)N)C(=O)N[C@@H](Cc1c[nH]c2ccccc12)C(=O)N[C@@H](CCCCN)C(=O)N[C@@H](CCCCN)C(=O)N[C@@H](Cc1c[nH]c2ccccc12)C(=O)N[C@@H](CCCN=C(N)N)C(=O)N[C@@H](Cc1c[nH]c2ccccc12)C(=O)N[C@@H](CCCCN)C(=O)N[C@@H](Cc1c[nH]c2ccccc12)C(=O)N[C@@H](CCCCN)C(=O)N[C@@H](Cc1c[nH]c2ccccc12)C(=O)N[C@@H](CCCCN)C(=O)N[C@H](C(N)=O)C(C)C [VKWRWKKWRWKWKWKV]
5 | – | – | – | > 128 | – | – | – | ≥ 128 | – | – | – | CC[C@H](C)[C@H](NC(=O)CN)C(=O)N[C@@H](CCCN=C(N)N)C(=O)N[C@@H](CCCN=C(N)N)C(=O)NCC(=O)N[C@H](C(=O)N[C@@H](CCCN=C(N)N)C(=O)N[C@@H](CCCN=C(N)N)C(=O)N[C@H](C(=O)N[C@H](C(=O)N[C@@H](CCCCN)C(=O)N[C@@H](CCCN=C(N)N)C(N)=O)[C@@H](C)CC)[C@@H](C)CC)[C@@H](C)CC [GIRRGIRRIIKR]
6 | – | – | – | > 128 | – | – | – | 8 (≈ 9.67 µg/mL) | – | – | – | CC[C@H](C)[C@H](NC(=O)CN)C(=O)N[C@H](C(=O)N[C@@H](C)C(=O)NCC(=O)N[C@H](C(=O)N[C@H](C(=O)N[C@H](C(=O)N[C@@H](C)C(=O)N[C@H](C(=O)N[C@@H](CCCCN)C(=O)N[C@@H](CCCCN)C(N)=O)[C@@H](C)CC)[C@@H](C)CC)[C@@H](C)CC)[C@@H](C)CC)[C@@H](C)CC [GIIAGIIIAIKK]
7 | – | – | – | 6.33 (≈ 8.89 µg/mL) | – | – | – | – | 7.46 (≈ 10.5 µg/mL) | 13.8 (≈ 19.4 µg/mL) | 4.24 (≈ 5.95 µg/mL) | CC[C@H](C)[C@@H]1NC(=O)[C@H](CO)NC(=O)[C@H](CCCCN)NC(=O)[C@H]([C@@H](C)O)NC(=O)[C@H](Cc2c[nH]c3ccccc23)NC(=O)[C@@H](N)CSSC[C@@H](C(=O)N[C@@H](Cc2ccccc2)C(=O)O)NC(=O)[C@@H]2CCCN2C(=O)[C@H](CCCCN)NC(=O)[C@@H]2CCCN2C(=O)[C@@H]2CCCN2C1=O [CWTKSIPPKPCF]
